Experiment [1] concerns the target T1, catalytic domain (JH1) of human JAK2 (Homo sapiens, UniProt O60674).
T1 construct: catalytic domain (JH1, amino acids 826-1132) of human JAK2; FLAG (N); purchased Carna Biosciences 08-445-20N; host or cells: baculovirus expression system
Kind of experiment: JAK2 LanthaScreen JH1 Binding Assay. To be noted: 50 nM Fluorescent JAK2-JH1 Tracer, 2 hours at 25° C. The essentials:
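TR-FRET tracer-displacement binding using N-terminal FLAG-tagged, biotinylated JH1 (aa 826-1132, baculovirus-expressed) at 1.5 nM, with 50 nM fluorescent tracer and 0.5 nM streptavidin-Tb. Buffer was 50 mM Tris pH 7.5, 10 mM MgCl2, 5 mM DTT, 2 h at 25° C. Non-specific binding used 2 mM ATP; IC50 came from four-parameter fits.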

Experiment [2] concerns the target T2, pseudo-kinase domain (JH2) of human Wild Type JAK2 (Homo sapiens, UniProt O60674, F794H/W659A/W777A).
T2 construct: pseudo-kinase domain (JH2, amino-acids 536-812 with 3 surface mutations W659A, W777A, F794H); His (C); purchased BPS Bioscience 79463; host or cells: baculovirus expression system
Kind of experiment: JAK2 LanthaScreen JH2-WT Binding Assay. To be noted: 50 nM Fluorescent JAK2-JH2 Tracer, 1 hour at 25° C. The essentials:
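Biotinylated His-Avi-tagged JAK2 JH2 (aa 536-812, three surface mutations; 0.145 nM) competed with 50 nM fluorescent tracer, using 0.25 nM streptavidin-Tb, in pH 7.5 Tris buffer for 1 h at 25° C.; non-specific binding was set with 2 mM ATP. TR-FRET read; IC50 from four-parameter fit.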
On the technique in general: In TR-FRET formats the signal depends on donor and acceptor labels being close together.

The target of experiment [3] is T3, pseudo-kinase domain (JH2) of human V617F mutant JAK2 (Homo sapiens, UniProt O60674, F794H/V617F/W659A/W777A).
T3 construct: pseudo-kinase domain (JH2, amino-acids 536-812 with 3 surface mutations W659A, W777A, F794H); His (C); purchased BPS Bioscience 79498; host or cells: baculovirus expression system
T3 sequence (O60674 536-812 V617F/W659A/W777A/F794H): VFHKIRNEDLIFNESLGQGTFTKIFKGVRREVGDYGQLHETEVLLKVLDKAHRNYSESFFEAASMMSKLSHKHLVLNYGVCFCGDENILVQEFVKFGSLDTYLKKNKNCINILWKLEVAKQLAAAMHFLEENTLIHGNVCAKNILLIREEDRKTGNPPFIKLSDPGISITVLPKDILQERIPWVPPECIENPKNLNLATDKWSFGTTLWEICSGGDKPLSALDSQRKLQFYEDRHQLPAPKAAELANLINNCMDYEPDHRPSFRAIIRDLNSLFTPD
Kind of experiment: JAK2 LanthaScreen JH2-V617F Binding Assay. To be noted: 50 nM Fluorescent JAK2-JH2 Tracer, 1 hour at 25° C. The essentials: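 Biotinylated His-Avi-tagged JH2 domain (aa 536-812, V617F plus 3 surface mutations; 0.26 nM), baculovirus-expressed, incubated 1 hour at 25° C with compound, 50 nM fluorescent JH2 tracer and 0.25 nM streptavidin-Tb in pH 7.5 Tris buffer. Tracer displacement read by LanthaScreen TR-FRET; non-specific binding with 2 mM ATP; four-parameter IC50.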

SMILES strings stand for the structures. pIC50: −log10 of the molar value.

T1 sequence (O60674 826-1132): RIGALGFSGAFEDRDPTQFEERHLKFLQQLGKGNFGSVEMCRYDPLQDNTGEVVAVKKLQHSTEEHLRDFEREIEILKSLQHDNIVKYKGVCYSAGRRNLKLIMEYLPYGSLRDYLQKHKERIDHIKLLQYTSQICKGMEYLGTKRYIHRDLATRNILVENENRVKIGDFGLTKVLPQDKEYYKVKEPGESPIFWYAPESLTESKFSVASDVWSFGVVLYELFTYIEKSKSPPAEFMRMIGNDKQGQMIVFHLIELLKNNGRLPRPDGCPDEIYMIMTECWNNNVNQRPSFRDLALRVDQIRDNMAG
T2 sequence (O60674 536-812 W659A/W777A/F794H): as the sequence (O60674 536-812 V617F/W659A/W777A/F794H) above, with F82V counted along it

As for `Cc1ccc(F)c(-c2c(-c3ccc(S(=O)(=O)N(C)C)cc3)[nH]c3nc(N)[nH]c(=O)c23)c1` [Example 69, 4-(2-Amino-5-(2-fluoro-5-methylphenyl)-4-oxo-4,7-dihydro-3H-pyrrolo[2,3-d]pyrimidin-6-yl)-N,N-dimethylbenzenesulfonamide], the pIC50 is 5.60 to 6.00 in experiment [1], 6.30 to 7.00 in experiment [2] and 6.30 to 7.00 in experiment [3].

Turning to `CCOc1ccccc1-c1c(-c2ccc(S(=O)(=O)N(C)C)cc2)[nH]c2nc(N)[nH]c(=O)c12` [Example 70, 4-(2-Amino-5-(2-ethoxyphenyl)-4-oxo-4,7-dihydro-3H-pyrrolo[2,3-d]pyrimidin-6-yl)-N,N-dimethylbenzenesulfonamide], the negative-log IC50 (pIC50) is < 5.60 in experiment [1], 5.60 to 6.00 in experiment [2] and 5.60 to 6.00 in experiment [3].

For `CN(C)S(=O)(=O)c1ccc(-c2[nH]c3nc(N)[nH]c(=O)c3c2-c2cccc3c2OC(C)(C)C3)cc1` [Example 71, 4-(2-Amino-5-(2,2-dimethyl-2,3-dihydrobenzofuran-7-yl)-4-oxo-4,7-dihydro-3H-pyrrolo[2,3-d]pyrimidin-6-yl)-N,N-dimethylbenzenesulfonamide], the pIC50 in experiment [1], in experiment [2] and in experiment [3] was < 5.60 throughout.

By pIC50 is commonly meant the IC50 on a negative log10 scale, so that one unit is a factor of ten. A higher pIC50 goes with a small IC50.

For the origin of these results see patent US11919908B2, “Substituted pyrrolo[2,3-d]pyrimidine compounds as JAK2 V617F inhibitors” (Incyte Corporation, priority 2020, dated 2024).
